In data set [1] the test system is hIL-6 mRNA. The data set is described as follows: Quantification of hIL-6 mRNA. In kind it is cell-based, human. On the set-up: key: Active: an active compound is one that causes a ≥20% inhibition in IL-6 mRNA at a concentration less than or equal to 10 μM. Particulars: IL-6 mRNA by real-time PCR; differentiated U937 cells, 1 h pretreatment, lipopolysaccharide stimulation 3 h; concentration ≤10 μM. The method in brief:
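U937 cells, differentiated for 3 days, were pretreated with compound for 1 h and then stimulated with E. coli LPS for 3 h at 37 °C. IL-6 mRNA was quantified by one-step qRT-PCR, with Ct normalized to an internal control, and fold induction was expressed relative to control.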

Data set [2] has as its system VCAM-1 mRNA. The data set is described as follows: Quantification of hVCAM mRNA. In kind it is cell-based, human. Also noted: key: Active: an active compound is one that causes a ≥20% inhibition in VCAM-1 mRNA at a concentration less than or equal to 10 μM; -1 mRNA at a concentration less than or equal to 10 μM. Particulars: VCAM-1 mRNA by real-time PCR; HUVECs, 1 h pretreatment, tumor necrosis factor-α stimulation 24 h; concentration ≤10 μM. Here is the method: In this example, […] in tissue culture cells was quantitated to measure the transcriptional inhibition of hVCAM when treated with a compound of the invention.
Human umbilical vein endothelial cells (HUVECs) were plated in a 96-well plate (4.0×10^3 cells/well) in 100 μL EGM media and incubated for 24 h prior to the addition of the compound of interest. The cells were pretreated for 1 h with the test compound prior to stimulation with tumor necrosis factor-α. The cells were incubated for an additional 24 h before the cells were harvested. At time of harvest, the spent media was removed from the HUVECs and rinsed in 200 μL PBS. Cell lysis solution (70 μL) was then added the cells in each well and incubated for ˜5-10 min at room temperature, to allow for complete cell lysis and detachment. mRNA was then prepared using the “mRNA Catcher PLUS plate” (Invitrogen), according to the protocol supplied. After the last wash, as much wash buffer as possible was aspirated without allowing the wells to dry. Elution buffer (E3, 70 μL) was then added to each well. mRNA was then eluted by incubating the mRNA Catcher PLUS plate with elution buffer for 5 min at 68° C. and then immediately placing the plate on ice.
The eluted mRNA so isolated was then used in a one-step quantitative real-time PCR reaction, using components of the Ultra Sense Kit together with Applied Biosystems primer-probe mixes. Real-time PCR data was analyzed, normalizing the Ct values for hVCAM to an internal control, prior to determining the fold induction of each unknown sample, relative to the control.
A general note: Real-time PCR tracks product formation cycle by cycle.

Experimental findings from patent publication US11407719B2, “Anti-inflammatory agents” (Resverlogix Corp., priority 2009, dated 2022) are described below.

For orientation: melting point means the temperature, or range, at which the solid turns liquid.

Consider `Cc1cc(-c2nc3cc(OC(C)C)cc(OC(C)C)c3c(=O)[nH]2)cc(C)c1OCCN1CCCC1` [2-(3,5-Dimethyl-4-(2-(pyrrolidin-1-yl)ethoxy)phenyl)-5,7-diisopropoxyquinazolin-4(3H)-one], for which the melting point fell in the range of 65 to 68 °C. Moreover, the “Inhibition of IL-6 expression” value in data set [1] is listed as “Active”.
Take `COc1cc(OC)c2c(=O)[nH]c(-c3cc(C)nc(C)c3)nc2c1` [2-(2,6-Dimethylpyridin-4-yl)-5,7-dimethoxyquinazolin-4(3H)-one]: the melting point was 291 to 292 °C. Further, the “Inhibition of IL-6 expression” value in data set [1] is recorded as “Active”.
Regarding `COc1cc(OC)c2c(=O)[nH]c(-c3ccc(N4CCC(O)CC4)cc3)nc2n1` [2-(4-(4-Hydroxypiperidin-1-yl)phenyl)-5,7-dimethoxypyrido[2,3-d]pyrimidin-4(3H)-one], the melting point was 284 to 286 °C. The “Inhibition of IL-6 expression” value in data set [1] is “Active”.
`CCCCCC(=O)N1CCN(c2ccc(-c3nc4cc(OC)cc(OC)c4c(=O)[nH]3)cc2)CC1` [2-(4-(4-Hexanoylpiperazin-1-yl)phenyl)-5,7-dimethoxyquinazolin-4(3H)-one]: in data set [1], the “Inhibition of IL-6 expression” value was “Active”. Further, the “Inhibition of VCAM-1 expression” value in data set [2] is “Inactive”.
`COc1cc(OC)c2c(=O)[nH]c(-c3ccc4[nH]c(CCN5CCCC5)cc4c3)nc2c1` [5,7-Dimethoxy-2-(2-(2-(pyrrolidin-1-yl)ethyl)-1H-indol-5-yl)quinazolin-4(3H)-one]: the “Inhibition of IL-6 expression” value in data set [1] is listed as “Active”. In addition, the “Inhibition of VCAM-1 expression” value in data set [2] is “Active”.
As to `COc1cc(OC)c2c(=O)[nH]c(-c3ccc(N4C[C@@H](C)N(C(C)=O)[C@@H](C)C4)cc3)nc2c1` [2-(4-((3R,5S)-4-Acetyl-3,5-dimethylpiperazin-1-yl)phenyl)-5,7-dimethoxyquinazolin-4(3H)-one], the “Inhibition of IL-6 expression” value in data set [1] is listed as “Active”. The “Inhibition of VCAM-1 expression” value in data set [2] is listed as “Active”.
`COc1cc(OC)c2c(=O)[nH]c(-c3ccc(N4CCN(C(=O)c5ccccc5)CC4)cc3)nc2c1` [2-(4-(4-Benzoylpiperazin-1-yl)phenyl)-5,7-dimethoxyquinazolin-4(3H)-one]: in data set [1], the “Inhibition of IL-6 expression” value is recorded as “Active”. The “Inhibition of VCAM-1 expression” value in data set [2] is on record as “Active”.
With `COc1cc(OC)c2c(=O)[nH]c(-c3ccc(N4CCN(C(=O)C(C)C)CC4)cc3)nc2c1` [2-(4-(4-Isobutyrylpiperazin-1-yl)phenyl)-5,7-dimethoxyquinazolin-4(3H)-one], the “Inhibition of IL-6 expression” value in data set [1] is “Active”. In addition, the “Inhibition of VCAM-1 expression” value in data set [2] is “Active”.
As for `COc1cc(OC)cc(-c2nc3cc(OC)cc(OC)c3c(=O)[nH]2)c1` [2-(3,5-dimethoxyphenyl)-5,7-dimethoxyquinazolin-4(3H)-one], the “Inhibition of IL-6 expression” value in data set [1] is “Active”. Further, the “Inhibition of VCAM-1 expression” value in data set [2] is reported as “Active”.
For the compound `COc1cc(OC)c2c(=O)[nH]c(-c3ccc(N4CCN(C(=O)c5ccc(F)cc5)CC4)cc3)nc2c1` [2-(4-(4-(4-Fluorobenzoyl)piperazin-1-yl)phenyl)-5,7-dimethoxyquinazolin-4(3H)-one], the “Inhibition of IL-6 expression” value in data set [1] was “Active”. Besides, the “Inhibition of VCAM-1 expression” value in data set [2] was “Active”.
Turning to `COc1cc(OC)c2c(=O)[nH]c(-c3ccc(N4CCN(C(=O)c5cc(Cl)sc5Cl)CC4)cc3)nc2c1` [2-(4-(4-(2,5-Dichlorothiophene-3-carbonyl)piperazin-1-yl)phenyl)-5,7-dimethoxyquinazolin-4(3H)-one], in data set [1], the “Inhibition of IL-6 expression” value is “Active”. Moreover, the “Inhibition of VCAM-1 expression” value in data set [2] is “Active”.
For the compound `COc1cc(OC)c2c(=O)[nH]c(-c3ccc(N4CCN(CCO)CC4)cc3)nc2c1` [2-(4-(4-(2-hydroxyethyl)piperazin-1-yl)phenyl)-5,7-dimethoxyquinazolin-4(3H)-one], the “Inhibition of IL-6 expression” value in data set [1] is recorded as “Active”. Also, in data set [2], the “Inhibition of VCAM-1 expression” value is “Active”.
`COc1cc(OC)c2c(=O)[nH]c(-c3cc(C)c(OCCN4CCOCC4)c(C)c3)cc2n1` [7-(3,5-dimethyl-4-(2-morpholinoethoxy)phenyl)-2,4-dimethoxy-1,6-naphthyridin-5(6H)-one]: the “Inhibition of IL-6 expression” value in data set [1] is “Active”. Besides, the “Inhibition of VCAM-1 expression” value in data set [2] is reported as “Active”.
For the compound `COc1cc(OC)c2c(=O)[nH]c(-c3ccc(N4CCCNCC4)cc3)nc2c1` [2-(4-(1,4-Diazepan-1-yl)phenyl)-5,7-dimethoxyquinazolin-4(3H)-one], in data set [1], the “Inhibition of IL-6 expression” value is given as “Active”. Further, the “Inhibition of VCAM-1 expression” value in data set [2] is on record as “Active”.
As for `O=c1[nH]c(-c2ccc(N3CCN(CC(F)(F)F)CC3)cc2)nc2ccccc12` [2-(4-(4-(2,2,2-Trifluoroethyl)piperazin-1-yl)phenyl)quinazolin-4(3H)-one], the “Inhibition of IL-6 expression” value in data set [1] is reported as “Active”. Further, the “Inhibition of VCAM-1 expression” value in data set [2] is recorded as “Inactive”.
For `CCN1CCN(Cc2ccc(-c3nc4cc(OC)cc(OC)c4c(=O)[nH]3)cc2)CC1` [2-(4-((4-ethylpiperazin-1-yl)methyl)phenyl)-5,7-dimethoxyquinazolin-4(3H)-one], in data set [1], the “Inhibition of IL-6 expression” value was “Active”. Also, in data set [2], the “Inhibition of VCAM-1 expression” value is recorded as “Active”.
On to `COc1cc(OC)c2c(=O)[nH]c(-c3ccc(N4C[C@@H](C)N[C@@H](C)C4)cc3)nc2c1` [2-(4-((3R,5S)-3,5-Dimethylpiperazin-1-yl)phenyl)-5,7-dimethoxyquinazolin-4(3H)-one], for which, in data set [1], the “Inhibition of IL-6 expression” value is reported as “Active”. For the same compound, in data set [2], the “Inhibition of VCAM-1 expression” value is “Active”.
In the case of `CCN(C(C)=O)C1CCN(c2ccc(-c3nc4cc(OC)cc(OC)c4c(=O)[nH]3)cc2)CC1` [N-(1-(4-(5,7-Dimethoxy-4-oxo-3,4-dihydroquinazolin-2-yl)phenyl)piperidin-4-yl)-N-ethylacetamide], the “Inhibition of IL-6 expression” value in data set [1] was “Active”. Besides, the “Inhibition of VCAM-1 expression” value in data set [2] is given as “Active”.
Consider `Cc1cc(-c2nc3ccccc3c(=O)[nH]2)cc(C)c1OCCN1CCOCC1` [2-(3,5-dimethyl-4-(2-morpholinoethoxy)phenyl)quinazolin-4(3H)-one], for which the “Inhibition of IL-6 expression” value in data set [1] is reported as “Active”. In data set [2], the “Inhibition of VCAM-1 expression” value is on record as “Active”.
With `COc1cc(OC)c2c(=O)[nH]c(-c3cc(C)c(OCCN4CCCC4)c(C)c3)nc2c1` [2-(3,5-dimethyl-4-(2-(pyrrolidin-1-yl)ethoxy)phenyl)-5,7-dimethoxyquinazolin-4(3H)-one], in data set [1], the “Inhibition of IL-6 expression” value was “Active”. Also, the “Inhibition of VCAM-1 expression” value in data set [2] is “Active”.
As to `COc1cc(OC)c2c(=O)[nH]c(-c3cc(C)c(OC[C@@H]4CCC(=O)N4)c(C)c3)nc2c1` [(S)-2-(3,5-Dimethyl-4-((5-oxopyrrolidin-2-yl)methoxy)phenyl)-5,7-dimethoxyquinazolin-4(3H)-one], in data set [1], the “Inhibition of IL-6 expression” value was “Active”. In addition, in data set [2], the “Inhibition of VCAM-1 expression” value was “Active”.
`COc1cc(OC)c2c(=O)[nH]c(-c3ccc(N4CCNCC4)cc3)nc2c1` [5,7-Dimethoxy-2-(4-(piperazin-1-yl)phenyl)quinazolin-4(3H)-one]: the “Inhibition of IL-6 expression” value in data set [1] is given as “Active”. Besides, the “Inhibition of VCAM-1 expression” value in data set [2] is reported as “Active”.
Turning to `Cc1cc(-c2nc3cc(F)cc(F)c3c(=O)[nH]2)cc(C)c1OCCN1CCCC1` [2-(3,5-Dimethyl-4-(2-(pyrrolidin-1-yl)ethoxy)phenyl)-5,7-difluoroquinazolin-4(3H)-one], the “Inhibition of IL-6 expression” value in data set [1] was “Active”. In addition, the “Inhibition of VCAM-1 expression” value in data set [2] is reported as “Active”.
